Where two headings read alike, the source gives them in different places.
Legend:
[1] = test system: breast cancer cell lines with aberrant vs normal copy number; assay: Association of recurrent copy number changes and response (t-test on GI50); format: cell-based, human; details: FDR p<0.2
Source text: We used a t-test to assess the association between recurrent copy number changes (at 8q24 (MYC), 11q13 (CCND1), 20q13 (STK15/AURKA)) and drug sensitivity. We combined into a single group cell lines with low or no amplification and compared them to cell lines with high amplification. […] Cell lines for which the GI50 was equal to the maximum concentration tested were omitted from analysis. We omitted compounds where any group had fewer than five samples.

[2] = test system: panel of 55 breast cancer cell lines; assay: Cell growth inhibition assay (Cell Titer Glo, 72 h, 9 doses; GI50, TGI, LC50); format: cell-based, human; details: Homo sapiens, read-out: GI50 (converted)

CCC1=C[C@@H]2CN(C1)Cc1c([nH]c3ccccc13)[C@@](C(=O)OC)(c1cc3c(cc1OC)N(C)[C@H]1[C@@](O)(C(=O)OC)[C@H](OC(C)=O)[C@]4(CC)C=CCN5CC[C@]31[C@@H]54)C2 [Vinorelbine]
association of response with homozygous deletion at 9p21 (CDKN2A) [1]: associated with response
GI50 ([2]; 600MPE cell line, censored GI50 values): 5130 nM
GI50 ([2]; AU565, AU565 cell line, censored GI50 values): 8.71 nM
GI50 ([2]; AU565, cell line AU565): 8.71 nM
GI50 ([2]; BT-474, BT474 cell line, censored GI50 values): 47.9 nM
GI50 ([2]; BT-474, cell line BT474): 47.9 nM
GI50 ([2]; BT-483, BT483 cell line, censored GI50 values): 7.24 nM
GI50 ([2]; BT-483, cell line BT483): 7.24 nM
GI50 ([2]; BT-549, BT549 cell line, censored GI50 values): 9.55 nM
GI50 ([2]; BT-549, cell line BT549): 9.55 nM
GI50 ([2]; CAMA-1, CAMA1 cell line, censored GI50 values): 13.2 nM
GI50 ([2]; CAMA-1, cell line CAMA1): 13.2 nM
GI50 ([2]; HCC38, HCC38 cell line, censored GI50 values): 11.5 nM
GI50 ([2]; HCC38, cell line HCC38): 11.5 nM
GI50 ([2]; HCC70, HCC70 cell line, censored GI50 values): 7.41 nM
GI50 ([2]; HCC70, cell line HCC70): 7.41 nM
GI50 ([2]; HCC202, HCC202 cell line, censored GI50 values): 13.5 nM
GI50 ([2]; HCC202, cell line HCC202): 13.5 nM
GI50 ([2]; HCC1143, HCC1143 cell line, censored GI50 values): 263 nM
GI50 ([2]; HCC1143, cell line HCC1143): 263 nM
GI50 ([2]; HCC1187, HCC1187 cell line, censored GI50 values): 26.9 nM
GI50 ([2]; HCC1187, cell line HCC1187): 26.9 nM
GI50 ([2]; HCC1395, HCC1395 cell line, censored GI50 values): 3.55 nM
GI50 ([2]; HCC1395, cell line HCC1395): 3.55 nM
GI50 ([2]; HCC1419, HCC1419 cell line, censored GI50 values): 355 nM
GI50 ([2]; HCC1419, cell line HCC1419): 355 nM
GI50 ([2]; HCC1428, HCC1428 cell line, censored GI50 values): 2190 nM
GI50 ([2]; HCC1428, cell line HCC1428): 2190 nM
GI50 ([2]; HCC1500, HCC1500 cell line, censored GI50 values): 11 nM
GI50 ([2]; HCC1500, cell line HCC1500): 11 nM
GI50 ([2]; HCC1806, HCC1806 cell line, censored GI50 values): 11.7 nM
GI50 ([2]; HCC1806, cell line HCC1806): 11.7 nM
GI50 ([2]; HCC1937, HCC1937 cell line, censored GI50 values): 224 nM
GI50 ([2]; HCC1937, cell line HCC1937): 224 nM
GI50 ([2]; HCC1954, HCC1954 cell line, censored GI50 values): 3.55 nM
GI50 ([2]; HCC1954, cell line HCC1954): 3.55 nM
GI50 ([2]; HCC2185 cell line, censored GI50 values): 26300 nM
GI50 ([2]; HCC3153 cell line, censored GI50 values): 51.3 nM
GI50 ([2]; LY2 cell line, censored GI50 values): 13.2 nM
GI50 ([2]; MCF7, MCF7 cell line, censored GI50 values): 16.6 nM
GI50 ([2]; MCF7, cell line MCF7): 16.6 nM
GI50 ([2]; MDA-MB-134-VI, MDAMB134VI cell line, censored GI50 values): 13.5 nM
GI50 ([2]; MDA-MB-157, MDAMB157 cell line, censored GI50 values): 12.9 nM
GI50 ([2]; MDA-MB-157, cell line MDAMB157): 12.9 nM
GI50 ([2]; MDA-MB-175-VII, MDAMB175VII cell line, censored GI50 values): 38.9 nM
GI50 ([2]; MDA-MB-231, MDAMB231 cell line, censored GI50 values): 5.13 nM
GI50 ([2]; MDA-MB-231, cell line MDAMB231): 5.13 nM
GI50 ([2]; MDA-MB-361, MDAMB361 cell line, censored GI50 values): 6.61 nM
GI50 ([2]; MDA-MB-361, cell line MDAMB361): 6.61 nM
GI50 ([2]; MDA-MB-415, MDAMB415 cell line, censored GI50 values): 18.2 nM
GI50 ([2]; MDA-MB-415, cell line MDAMB415): 18.2 nM
GI50 ([2]; MDA-MB-436, MDAMB436 cell line, censored GI50 values): 26.9 nM
GI50 ([2]; MDA-MB-436, cell line MDAMB436): 26.9 nM
GI50 ([2]; MDA-MB-453, MDAMB453 cell line, censored GI50 values): 3.8 nM
GI50 ([2]; MDA-MB-453, cell line MDAMB453): 3.8 nM
GI50 ([2]; MDA-MB-468, MDAMB468 cell line, censored GI50 values): 10.7 nM
GI50 ([2]; MDA-MB-468, cell line MDAMB468): 10.7 nM
GI50 ([2]; SK-BR-3, SKBR3 cell line, censored GI50 values): 17.4 nM
GI50 ([2]; SK-BR-3, cell line SKBR3): 17.4 nM
GI50 ([2]; SUM52PE, SUM52PE cell line, censored GI50 values): 5.37 nM
GI50 ([2]; SUM52PE, cell line SUM52PE): 5.37 nM
GI50 ([2]; SUM149PT, SUM149PT cell line, censored GI50 values): 12.3 nM
GI50 ([2]; SUM149PT, cell line SUM149PT): 12.3 nM
GI50 ([2]; SUM185PE, SUM185PE cell line, censored GI50 values): 8.32 nM
GI50 ([2]; SUM185PE, cell line SUM185PE): 8.32 nM
GI50 ([2]; SUM1315MO2, SUM1315MO2 cell line, censored GI50 values): 2.24 nM
GI50 ([2]; SUM-159-PT, SUM159PT cell line, censored GI50 values): 12.3 nM
GI50 ([2]; SUM-159-PT, cell line SUM159PT): 12.3 nM
GI50 ([2]; T47D, T47D cell line, censored GI50 values): 4680 nM
GI50 ([2]; T47D, cell line T47D): 4680 nM
GI50 ([2]; UACC-812, UACC812 cell line, censored GI50 values): 74.1 nM
GI50 ([2]; UACC-812, cell line UACC812): 74.1 nM
GI50 ([2]; UACC-893, UACC893 cell line, censored GI50 values): 11 nM
GI50 ([2]; UACC-893, cell line UACC893): 11 nM
GI50 ([2]; ZR-75-1, ZR751 cell line, censored GI50 values): 44.7 nM
GI50 ([2]; ZR-75-1, cell line ZR751): 44.7 nM
GI50 ([2]; ZR-75B, ZR75B cell line, censored GI50 values): 8.91 nM
GI50 ([2]; ZR-75B, cell line ZR75B): 8.91 nM
GI50 ([2]; cell line 600MPE): 5130 nM
GI50 ([2]; cell line HCC2185): 26300 nM
GI50 ([2]; cell line HCC3153): 51.3 nM
GI50 ([2]; cell line LY2): 13.2 nM
GI50 ([2]; cell line MDAMB134V): 13.5 nM
GI50 ([2]; cell line MDAMB175V): 38.9 nM
GI50 ([2]; cell line SUM1315MO): 2.24 nM

Reference: patent publication US10770169B2, “Method of providing a treatment to a subject based on a dynamic pathway map” (THE REGENTS OF THE UNIVERSITY OF CALIFORNIA, priority 2010, dated 2020)
